Measurements published in patent US12612599B2, “Compositions and methods for microglia replacement therapy” (Savanna Biotherapeutics, Inc., priority 2018, dated 2026).

Test system: bone marrow derived macrophages (BMDMs) expressing human CSF1R variants
Assay: In vitro survival assay of retrovirally transduced bone marrow derived macrophages expressing CSF1R variants under PLX3397
Assay type: cell-based, mouse
Details: PLX3397 100 nM, 48 hours, CellTiter-Glo 2; compared to cells expressing WT CSF1R; FIG. 23

Substance	ratio between number of cells following treatment with CSF1R inhibitor (PLX-3397) + CSF1 and number of cells following complete deprivation of CSF1
D796A: human CSF1R variant, SEQ ID NO: 12	higher ratio than cells expressing WT CSF1R
G795A: human CSF1R variant, SEQ ID NO: 10	higher ratio than cells expressing WT CSF1R
M637L: human CSF1R variant, SEQ ID NO: 11	higher ratio than cells expressing WT CSF1R
Y546F: human CSF1R variant, SEQ ID NO: 14	higher ratio than cells expressing WT CSF1R
